Data published in ChEMBL document CHEMBL1201862, “PubChem BioAssay data set” (2004).
Values joined by “and” are separate entries in the source; they are usually repeats but may differ in a detail not shown here. Equal entries are not always repeated.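 These data come from cells grown in 96-well plates and exposed to compound for 48 hours at five concentrations. Here, GI50 denotes the concentration required for 50% inhibition of growth.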 Active and inactive are the calls of the source. Rule as the data show it: active = GI50 up to about 1.1 µM and inactive = higher.

Tests used:
Assay in all cases: NCI-60 cell line screen, 48 h
OVCAR-8 = system: OVCAR-8
NCI-H460 = system: NCI-H460
RPMI-8226 = system: RPMI-8226
UO-31 = system: UO-31
T47D = system: T47D
MDA-MB-435 = system: MDA-MB-435
SK-MEL-5 = system: SK-MEL-5
M14 = system: M14
SW-620 = system: SW-620
ACHN = system: ACHN
HOP-62 = system: HOP-62
HCT-116 = system: HCT-116
IGROV-1 = system: IGROV-1
MOLT-4 = system: MOLT-4
SN12C = system: SN12C
HCC 2998 = system: HCC 2998
MDA-MB-231 = system: MDA-MB-231
UACC-62 = system: UACC-62
COLO 205 = system: COLO 205
SK-MEL-2 = system: SK-MEL-2

Row | Structure (SMILES) | GI50 (OVCAR-8) | GI50 (NCI-H460) | GI50 (RPMI-8226) | GI50 (UO-31) | GI50 (T47D) | GI50 (MDA-MB-435) | GI50 (SK-MEL-5) | GI50 (M14) | GI50 (SW-620) | GI50 (ACHN) | GI50 (HOP-62) | GI50 (HCT-116) | GI50 (IGROV-1) | GI50 (MOLT-4) | GI50 (SN12C) | GI50 (HCC 2998) | GI50 (MDA-MB-231) | GI50 (UACC-62) | GI50 (COLO 205) | GI50 (SK-MEL-2)
1 | O=C(c1ccc([N+](=O)[O-])cc1)N1CCCC1 | > 100 µM (inactive) | > 100 µM (inactive) | > 100 µM (inactive) | > 100 µM (inactive) | > 100 µM (inactive) | > 100 µM (inactive) | > 100 µM (inactive) | > 100 µM (inactive) | > 100 µM (inactive) | > 100 µM (inactive) | > 100 µM (inactive) | > 100 µM (inactive) | > 100 µM (inactive) | > 100 µM (inactive) | 17.7 µM (inactive) | > 100 µM (inactive) | > 100 µM (inactive) | 66.1 µM (inactive) |  | 
2 | CCSC1=C(C#N)C2(CCCCC2)C2=C(O)CC(C)(C)CC2=N1 | 36.5 µM (inactive) | < 0.01 µM (active) | 70.3 µM (inactive) | 16.6 µM (inactive) | 86.1 µM (inactive) | 42.1 µM (inactive) | 40.9 µM (inactive) | > 100 µM (inactive) | > 100 µM (inactive) | 24.7 µM (inactive) |  | > 100 µM (inactive) | 26.5 µM (inactive) | > 100 µM (inactive) | 60.7 µM (inactive) | 1.01 µM (active) | 45.3 µM (inactive) | 25.6 µM (inactive) | > 100 µM (inactive) | 54.8 µM (inactive)
3 | COC(=O)C1OC(O[C@H]2CC[C@]3(C)[C@H]4CC=C5[C@@H]6CC(C)(C)CC[C@]6(C(=O)OC6OCC(O)C(O)C6OC6OC(C)C(OC7OCC(O)C(O)C7O)C(O)C6O)[C@H](O)C[C@@]5(C)[C@]4(C)CC[C@H]3C2(C)C)C(O)C(O)C1O (stereo not given in full) |  |  | 4.51 µM (inactive) and 5.06 µM (inactive) | 1.71 µM (inactive) and 2.04 µM (inactive) | 8.28 µM (inactive) and 5.32 µM (inactive) | 2.32 µM (inactive) and 1.95 µM (inactive) | 6.61 µM (inactive) and 13.1 µM (inactive) | 2.75 µM (inactive) and 3.91 µM (inactive) | 13.2 µM (inactive) and 11.7 µM (inactive) | 4.35 µM (inactive) and 4.5 µM (inactive) | 8.85 µM (inactive) and 6.27 µM (inactive) | 4.08 µM (inactive) and 4.86 µM (inactive) | 15.8 µM (inactive) and 11.7 µM (inactive) |  | 1.84 µM (inactive) and 1.85 µM (inactive) | 2.82 µM (inactive) and 1.82 µM (inactive) | 1.91 µM (inactive) and 2.36 µM (inactive) |  | 1.66 µM (inactive) and 1.83 µM (inactive) | 2.7 µM (inactive) and 2.9 µM (inactive)
4 | Cc1nc2ccc(Cl)cc2c2c1CCO2 | 99.5 µM (inactive) | 54.2 µM (inactive) | > 100 µM (inactive) | 37.1 µM (inactive) | 88.7 µM (inactive) | > 100 µM (inactive) | 68.5 µM (inactive) |  | > 100 µM (inactive) | 86.5 µM (inactive) | > 100 µM (inactive) | 97.5 µM (inactive) | 56.8 µM (inactive) | 45.2 µM (inactive) | > 100 µM (inactive) | > 100 µM (inactive) | 43.5 µM (inactive) | 71.9 µM (inactive) | 83.9 µM (inactive) | 
5 | CCCCCCCC1c2cc3nc(cc4[nH]c(cc5nc(cc([nH]2)[C@@]1(C)CC(=O)N(C)C)C(C)=C5CCC(=O)O)c(CCC(=O)O)c4C)C=C3C (stereo not given in full) |  | 20.8 µM (inactive) | 17.7 µM (inactive) | 18.2 µM (inactive) | 34.9 µM (inactive) | 30.2 µM (inactive) | 29.7 µM (inactive) | 14.7 µM (inactive) | 42.8 µM (inactive) | 18.5 µM (inactive) | 20.5 µM (inactive) | 17.1 µM (inactive) | 21 µM (inactive) |  | 30.4 µM (inactive) | 20 µM (inactive) | 17 µM (inactive) | 18.5 µM (inactive) | 16.7 µM (inactive) | 18.8 µM (inactive)
6 | O=c1[nH]c2nc3ccccc3c(=O)n2/c1=C/c1ccc(Cl)cc1 | 16.1 µM (inactive) |  | 82.8 µM (inactive) | 67.6 µM (inactive) | 36.2 µM (inactive) | 21.7 µM (inactive) |  | 36.9 µM (inactive) | 17.9 µM (inactive) | 65.3 µM (inactive) | 53.7 µM (inactive) | 36 µM (inactive) |  | 51.6 µM (inactive) | 26.8 µM (inactive) | 21.7 µM (inactive) | 58.1 µM (inactive) | 33.3 µM (inactive) | 38.5 µM (inactive) | > 100 µM (inactive)
7 | COc1ccc(C(CC(=O)c2ccccc2)C(=O)c2ccc3c(c2)OCO3)cc1 (stereo not given) | > 100 µM (inactive) | > 100 µM (inactive) | > 100 µM (inactive) | > 100 µM (inactive) | 77.3 µM (inactive) | > 100 µM (inactive) | > 100 µM (inactive) | > 100 µM (inactive) | > 100 µM (inactive) | > 100 µM (inactive) | > 100 µM (inactive) |  | > 100 µM (inactive) | > 100 µM (inactive) | > 100 µM (inactive) | > 100 µM (inactive) | > 100 µM (inactive) | > 100 µM (inactive) | > 100 µM (inactive) | > 100 µM (inactive)
